Source: ChEMBL document CHEMBL3414534, “Water-soluble isoindolo[2,1-a]quinoxalin-6-imines: in vitro antiproliferative activity and molecular mechanism(s) of action” (Eur J Med Chem, 2015)
Values after ≈ are worked out from the molar mass of the structure shown. Values joined by “and” are separate entries in the source; they are usually repeats but may differ in a detail not shown here. Equal entries are not always repeated. Active and inactive are the calls of the source. No cut-off for these calls is given here.

Experiments:
[1] = Growth inhibition of human NCI60 cells; type: functional
[2] = species: Homo sapiens; assay: Binding affinity to human telomeric DNA sequence assessed as change in melting temperature at 5 uM at pH 7.4 by fluorescence melting assay
[3] = Binding affinity to Pu24 DNA (unknown origin) assessed as change in melting temperature at 5 uM at pH 7.4 by fluorescence melting assay
[4] = Binding affinity to double stranded DNA (unknown origin) assessed as change in melting temperature at 5 uM at pH 7.4 by fluorescence melting assay
[5] = Solubility in water at 25 degC sonicated for 10 mins by HPLC method; type: physicochemical
[6] = system: U2OS; assay: Induction of apoptosis in human U2OS cells assessed as increase in caspase-3 catalytic activity at cytotoxic IC50 level after 72 hrs; type: functional
[7] = target: T1, Tubulin (Homo sapiens) (UniProt P68371+Q9H4B7+P0DPH7+P68366+Q13509+Q71U36+P04350+Q3ZCM7+P07437+P68363+Q9BQE3+Q6PEY2+Q13885+Q9BVA1+Q9BUF5); assay: Induction of tubulin polymerization in human U2OS cells at cytotoxic IC50 level after 72 hrs by Western blotting method; type: cell-based
[8] = system: U2OS; assay: Induction of telomere architecture perturbations in human U2OS cells assessed as displacement of TRF2 from telomeres at cytotoxic IC50 level after 24 hrs by chromatin immunoprecipitation method; type: functional
[9] = system: U2OS; assay: Induction of telomere architecture perturbations in human U2OS cells assessed as displacement of hPOT1 from telomeres at cytotoxic IC50 level after 24 hrs by chromatin immunoprecipitation method; type: functional
[10] = system: U2OS; assay: Induction of telomere architecture perturbations in human U2OS cells assessed as displacement of hPOT1 from telomeres at cytotoxic IC50 level after 12 hrs by chromatin immunoprecipitation method; type: functional
[11] = system: U2OS; assay: Induction of telomere architecture perturbations in human U2OS cells assessed as increase in DNA topoisomerase 1 binding to telomeric sequences at cytotoxic IC50 level after 12 hrs by chromatin immunoprecipitation method; type: functional
[12] = system: U2OS; assay: Induction of telomere architecture perturbations in human U2OS cells assessed as displacement of human DNA topoisomerase 1 from telomeres at cytotoxic IC50 level after 24 hrs by chromatin immunoprecipitation method; type: functional
[13] = target: T1, Tubulin (Homo sapiens); assay: Inhibition of tubulin polymerization in human U2OS cells at cytotoxic IC50 level after 72 hrs by Western blotting method; type: cell-based
[14] = system: U2OS; assay: Induction of cell cycle arrest in human U2OS cells assessed as accumulation at G2/M phase at cytotoxic IC50 level by propidium iodide staining based based cytofluorimetry; type: functional; settings: TDE = time-dependent effect
[15] = target: T2, DNA topoisomerase 1 (Homo sapiens) (UniProt P11387); assay: Inhibition of human recombinant topoisomerase 1-dependent DNA cleavage using 751-bp BamHI-EcoRI fragment of SV40 DNA at 1 to 50 uM incubated for 30 mins by PAGE method
T2 sequence (whole entry): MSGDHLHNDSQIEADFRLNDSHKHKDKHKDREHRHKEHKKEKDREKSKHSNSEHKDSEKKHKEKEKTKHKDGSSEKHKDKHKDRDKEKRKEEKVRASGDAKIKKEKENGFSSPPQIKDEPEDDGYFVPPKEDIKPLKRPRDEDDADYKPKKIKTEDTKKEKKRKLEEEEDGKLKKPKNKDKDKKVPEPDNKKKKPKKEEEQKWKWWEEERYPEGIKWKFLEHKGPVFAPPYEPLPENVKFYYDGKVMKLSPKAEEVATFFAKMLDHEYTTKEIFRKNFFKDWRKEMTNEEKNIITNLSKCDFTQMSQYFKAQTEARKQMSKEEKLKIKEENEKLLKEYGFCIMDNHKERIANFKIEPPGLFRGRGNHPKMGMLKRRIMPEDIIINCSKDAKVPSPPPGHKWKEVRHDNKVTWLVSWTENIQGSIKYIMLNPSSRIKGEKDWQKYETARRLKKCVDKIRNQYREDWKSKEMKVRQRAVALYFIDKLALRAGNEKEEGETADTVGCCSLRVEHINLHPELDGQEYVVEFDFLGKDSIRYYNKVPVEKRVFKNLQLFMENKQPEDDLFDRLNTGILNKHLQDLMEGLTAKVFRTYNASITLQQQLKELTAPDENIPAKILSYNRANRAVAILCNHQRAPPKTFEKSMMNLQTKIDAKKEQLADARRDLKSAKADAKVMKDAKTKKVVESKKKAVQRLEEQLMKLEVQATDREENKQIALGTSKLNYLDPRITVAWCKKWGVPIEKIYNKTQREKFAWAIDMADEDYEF

[16] = system: Calf thymus DNA; assay: Binding affinity to calf thymus double stranded DNA assessed as induction of modification of dichroic signal by CD spectroscopy; type: nucleic-acid assay; settings: Bos taurus
[17] = system: U2OS; assay: Growth inhibition of human U2OS cells after 72 hrs by coulter counter method; type: functional, cell-based
[18] = system: U2OS; assay: Induction of cell cycle arrest in human U2OS cells assessed as increase in accumulation at subG1 phase at cytotoxic IC50 level by propidium iodide staining based based cytofluorimetry; type: functional; settings: TDE = time-dependent effect
[19] = system: U2OS; assay: Induction of telomere architecture perturbations in human U2OS cells assessed as displacement of hPOT1 from telomeres at cytotoxic IC50 level after 72 hrs by chromatin immunoprecipitation method; type: functional, cell-based
[20] = species: Homo sapiens; assay: Binding affinity to human telomeric DNA sequence Tel22 assessed as induction of modification of dichroic signal at 0 to 16 uM at pH 7.4 by CD spectroscopy
[21] = system: U2OS; assay: Induction of telomere architecture perturbations in human U2OS cells assessed as increase in DNA topoisomerase 1 binding to telomeric sequences at cytotoxic IC50 level after 6 hrs by chromatin immunoprecipitation method; type: functional
[22] = target: Cyclin-dependent kinase 1 (Homo sapiens, UniProt P06493); assay: Inhibition of CDC2 kinase (unknown origin) using histone H1 and [32P]-ATP
[23] = Inhibition of purified recombinant glutathione-S-transferase tagged cdc25 phosphatase (unknown origin) assessed as reduction in p-nitrophenylphosphate phosphatase activity by colorimetry; parameters: species or system Homo sapiens
[24] = target: T2, DNA topoisomerase 1 (Homo sapiens); settings: 50 uM
Description: Inhibition of human recombinant topoisomerase 1-dependent DNA cleavage using 751-bp BamHI-EcoRI fragment of SV40 DNA at 50 uM incubated for 30 mins by PAGE method

Chain of Cyclin-dependent kinase 1 (P06493 whole entry): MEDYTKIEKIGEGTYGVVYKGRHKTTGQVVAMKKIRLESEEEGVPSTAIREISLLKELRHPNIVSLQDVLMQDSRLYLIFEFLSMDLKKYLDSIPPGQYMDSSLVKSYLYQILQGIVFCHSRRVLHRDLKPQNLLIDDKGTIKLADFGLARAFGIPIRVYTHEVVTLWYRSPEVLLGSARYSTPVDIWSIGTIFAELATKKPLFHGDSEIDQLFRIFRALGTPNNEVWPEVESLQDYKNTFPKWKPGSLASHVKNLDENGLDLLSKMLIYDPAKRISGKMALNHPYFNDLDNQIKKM

| Structure (SMILES) | ΔTm [2] | ΔTm [3] | ΔTm [4] | solubility at 10 min [5] [mM] | GI50 ([1]; Homo sapiens, NCI60) [µM] | other results |
| --- | --- | --- | --- | --- | --- | --- |
| COc1ccc2cn3c4ccc(O)cc4[nH]c(=N)c3c2c1 | 1.9 °C | 0.2 °C | 0.2 °C | 22.4 (≈ 6260 µg/mL) | 12.3 | – |
| N=c1[nH]c2cc(O)ccc2n2cc3c(F)cccc3c12 [listing 1 of 2 here] | – | – | – | 23 (≈ 6150 µg/mL) | – | GI50 [1]: 31.6 µM |
| CC(=O)O[C@H]1C(=O)[C@@]2(C)[C@H]([C@H](OC(=O)c3ccccc3)[C@]3(O)C[C@H](OC(=O)[C@H](O)[C@@H](NC(=O)c4ccccc4)c4ccccc4)C(C)=C1C3(C)C)[C@]1(OC(C)=O)CO[C@@H]1C[C@@H]2O | – | – | – | – | – | Activity [6]: Active; Activity [7]: Active |
| Cc1cc2[nH]c(=N)c3c4ccccc4cn3c2cc1C | 3.1 °C | 1.9 °C | 0.3 °C | – | – | – |
| CC(=O)O.COc1cc2cn3c4ccc(O)cc4[nH]c(=N)c3c2cc1OC | – | – | – | 14 | – | GI50 [1]: < 3.31 µM; fold change (FC) [6]: 17; Activity [8]: -66%; Activity [9]: -31%; Activity [10]: -63%; Activity [11]: 77%; inhibition (INH) [12]: 57% |
| COc1ccc2c(c1)cn1c3ccc(OC)cc3[nH]c(=N)c21 | 1.2 °C | 1.1 °C | 0 °C | 13 (≈ 3810 µg/mL) | < 1.2 | tubulin polymerization inhibition (active/inactive) [13]: Active; Activity [14]: tde; inhibition of DNA cleavage (qualitative) [15]: Dose-dependent effect; fold change (FC) [6]: 13; Activity [8]: -67%; Activity [16]: inactive; growth inhibition (GI) [17]: Active; Activity [18]: tde; inhibition (INH) [12]: 57%; Activity [19]: inactive |
| N=c1[nH]c2ccccc2n2cc3ccccc3c12 | 1.1 °C | 1.5 °C | 0.3 °C | – | – | – |
| COc1ccc2c(c1)[nH]c(=N)c1c3cc(OC)c(OC)cc3cn21 [listing 1 of 2 here] | – | – | – | 14.4 (≈ 4660 µg/mL) | > 15.5 | – |
| Cc1cc2cn3c4ccc(O)cc4[nH]c(=N)c3c2cc1C [listing 1 of 2 here] | 3.6 °C and 2.5 °C | 1.9 °C and 1.1 °C | 0.2 °C and 0.1 °C | – | – | – |
| CC(=O)O.Cc1cc2cn3c4ccc(O)cc4[nH]c(=N)c3c2cc1C | – | – | – | 9.8 | – | GI50 [1]: < 5.25 µM |
| CCC1=C[C@@H]2CN(C1)Cc1c([nH]c3ccccc13)[C@@](C(=O)OC)(c1cc3c(cc1OC)N(C)[C@H]1[C@@](O)(C(=O)OC)[C@H](OC(C)=O)[C@]4(CC)C=CCN5CC[C@]31[C@@H]54)C2 | – | – | – | – | – | tubulin polymerization inhibition (active/inactive) [13]: Active; Activity [6]: Active |
| CC(=O)O.COc1ccc2c(c1)cn1c3ccc(O)cc3[nH]c(=N)c21 | – | – | – | 10.9 | – | GI50 [1]: < 8.32 µM |
| COc1cc2cn3c4ccc(O)cc4[nH]c(=N)c3c2cc1OC [listing 1 of 2 here] | 5.9 °C and 6.2 °C | 3.4 °C and 2.4 °C | 0.3 °C and 0.2 °C | – | – | tubulin polymerization inhibition (active/inactive) [13]: Active; Activity [14]: tde; inhibition of DNA cleavage (qualitative) [15]: Active; Activity [9]: inactive; Activity [16]: Active; growth inhibition (GI) [17]: Active; Activity [20]: Active; Activity [18]: tde |
| O=C(Cn1c2ccc(Br)cc2c2nc3ccccc3nc21)NNC(=S)NC1CCCCC1 | – | – | – | – | – | IC50 [22]: 70 µM; IC50 [23]: 25 µM |
| COc1ccc2c(c1)[nH]c(=N)c1c3ccccc3cn21 | 1.4 °C | 2 °C | 0.2 °C | – | – | – |
| CCc1c2c(nc3ccc(O)cc13)-c1cc3c(c(=O)n1C2)COC(=O)[C@]3(O)CC | – | – | – | – | – | inhibition [24]: Active |
| COc1ccc2c(c1)cn1c3ccc(O)cc3[nH]c(=N)c21 [listing 2 of 2 here] | 4.4 °C and 4.3 °C | 1.9 °C and 2.9 °C | 0.1 °C and 0.7 °C | – | – | – |
| COc1ccc(OC)c2c1[nH]c(=N)c1c3ccccc3cn21 | 4.3 °C and 4.4 °C | 2.6 °C and 2.2 °C | 0.3 °C and 0.7 °C | 12.7 (≈ 3730 µg/mL) | 2.29 | – |

More lines, main results first:

| ΔTm [2] | ΔTm [3] | ΔTm [4] | solubility at 10 min [5] [mM] | Structure (SMILES) | GI50 ([1]; Homo sapiens, NCI60) [µM] | other results |
| --- | --- | --- | --- | --- | --- | --- |
| – | – | – | 21.9 (≈ 6120 µg/mL) | COc1ccc2c(c1)cn1c3ccc(O)cc3[nH]c(=N)c21 [listing 1 of 2 here] | 11 | – |
| – | – | – | 13.2 (≈ 3870 µg/mL) | COc1ccc2c(c1)[nH]c(=N)c1c3cc(OC)ccc3cn21 | < 1.05 | – |
| 1.8 °C | 1.5 °C | 0.2 °C | – | Cc1cccc2c1[nH]c(=N)c1c3ccccc3cn21 | – | – |
| 1.5 °C and 2 °C | 1.1 °C and 2.3 °C | 0.1 °C and 0 °C | 13.8 (≈ 3630 µg/mL) | COc1ccc2[nH]c(=N)c3c4ccccc4cn3c2c1 | 1.55 | – |
| – | – | – | 3.4 (≈ 899 µg/mL) | COc1ccc2c(c1)[nH]c(=O)c1c3ccccc3cn21 | – | – |
| 2.6 °C and 1.4 °C | 2.1 °C | 0.1 °C and 0 °C | 7.8 (≈ 2270 µg/mL) | COc1ccc2c(c1)[nH]c(=N)c1c3cc(C)c(C)cc3cn21 | < 3.8 | – |
| – | – | – | 12.7 | CC(=O)O.N=c1[nH]c2cc(O)ccc2n2cc3c(F)cccc3c12 | – | GI50 [1]: 6.31 µM |
| 1.8 °C | 2.1 °C | 0.2 °C | 14.4 (≈ 4050 µg/mL) | COc1ccc2c(c1)[nH]c(=N)c1c3cccc(F)c3cn21 | 10.7 | – |
| 1 °C and 0.8 °C | 2 °C and 1 °C | 0 °C | – | N=c1[nH]c2cc(O)ccc2n2cc3c(F)cccc3c12 [listing 2 of 2 here] | – | inhibition of DNA cleavage (qualitative) [15]: Dose-dependent effect |
| – | – | – | 7.2 | CC(=O)O.COc1ccc2c(c1)[nH]c(=N)c1c3cc(OC)c(OC)cc3cn21 | – | GI50 [1]: < 9.55 µM |
| – | – | – | 24.5 (≈ 7580 µg/mL) | COc1cc2cn3c4ccc(O)cc4[nH]c(=N)c3c2cc1OC [listing 2 of 2 here] | < 3.24 | fold change (FC) [6]: 23; Activity [8]: -80%; Activity [10]: -88%; Activity [11]: 309%; Activity [21]: 64%; inhibition (INH) [12]: 57% |
| – | – | – | 14.1 (≈ 3910 µg/mL) | Cc1cc2cn3c4ccc(O)cc4[nH]c(=N)c3c2cc1C [listing 2 of 2 here] | – | GI50 [1]: < 1.45 µM |
| 0.3 °C | 1.1 °C | 0 °C | – | N=c1[nH]c2cc(Cl)c(Cl)cc2n2cc3ccccc3c12 | – | – |
| 5 °C and 3.1 °C | 4.1 °C and 2.4 °C | 0 °C and 0.1 °C | – | COc1ccc2c(c1)[nH]c(=N)c1c3cc(OC)c(OC)cc3cn21 [listing 2 of 2 here] | – | – |
